Here are results for 18 molecules from ChEMBL document CHEMBL4765258 (Eur J Med Chem, 2020).

Data set [1] has as its target T1, Nuclear factor erythroid 2-related factor 2 (Homo sapiens) (UniProt Q16236).
T1 sequence (whole entry): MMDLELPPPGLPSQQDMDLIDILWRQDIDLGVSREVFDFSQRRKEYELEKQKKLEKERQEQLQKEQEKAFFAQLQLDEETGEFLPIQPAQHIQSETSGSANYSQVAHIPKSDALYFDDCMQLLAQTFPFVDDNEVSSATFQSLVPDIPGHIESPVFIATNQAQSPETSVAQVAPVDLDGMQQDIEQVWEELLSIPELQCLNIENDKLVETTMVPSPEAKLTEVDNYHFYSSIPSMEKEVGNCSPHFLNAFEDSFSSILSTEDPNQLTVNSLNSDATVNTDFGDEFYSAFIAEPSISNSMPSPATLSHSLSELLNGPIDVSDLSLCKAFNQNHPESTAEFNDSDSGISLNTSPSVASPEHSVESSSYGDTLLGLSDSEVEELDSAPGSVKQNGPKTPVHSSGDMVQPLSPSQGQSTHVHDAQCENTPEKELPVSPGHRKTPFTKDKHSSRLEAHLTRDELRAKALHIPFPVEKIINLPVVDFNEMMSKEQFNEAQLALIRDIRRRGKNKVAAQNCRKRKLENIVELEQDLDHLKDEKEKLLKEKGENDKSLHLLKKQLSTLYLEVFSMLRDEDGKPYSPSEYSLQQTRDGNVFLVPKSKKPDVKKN
The data set can be described thus: Activation of NRF2 in human AREc32 cells incubated for 24 hrs by luciferase reporter gene assay. It is filed as cell-based. (In a reporter assay the amount or activity of a reporter protein is the signal.)

The target of data set [2] is Kelch-like ECH-associated protein 1 (Homo sapiens) (UniProt Q14145). The data set can be described thus: Binding affinity to human recombinant Keap1 Kelch domain expressed in Escherichia coli BL21 (DE3) by SPR assay. Background: In SPR one partner is held on a chip, and binding of the other changes the refractive index at the surface.
Sequence of Kelch-like ECH-associated protein 1 (Homo sapiens) (Q14145 whole entry, the tested form may be a part): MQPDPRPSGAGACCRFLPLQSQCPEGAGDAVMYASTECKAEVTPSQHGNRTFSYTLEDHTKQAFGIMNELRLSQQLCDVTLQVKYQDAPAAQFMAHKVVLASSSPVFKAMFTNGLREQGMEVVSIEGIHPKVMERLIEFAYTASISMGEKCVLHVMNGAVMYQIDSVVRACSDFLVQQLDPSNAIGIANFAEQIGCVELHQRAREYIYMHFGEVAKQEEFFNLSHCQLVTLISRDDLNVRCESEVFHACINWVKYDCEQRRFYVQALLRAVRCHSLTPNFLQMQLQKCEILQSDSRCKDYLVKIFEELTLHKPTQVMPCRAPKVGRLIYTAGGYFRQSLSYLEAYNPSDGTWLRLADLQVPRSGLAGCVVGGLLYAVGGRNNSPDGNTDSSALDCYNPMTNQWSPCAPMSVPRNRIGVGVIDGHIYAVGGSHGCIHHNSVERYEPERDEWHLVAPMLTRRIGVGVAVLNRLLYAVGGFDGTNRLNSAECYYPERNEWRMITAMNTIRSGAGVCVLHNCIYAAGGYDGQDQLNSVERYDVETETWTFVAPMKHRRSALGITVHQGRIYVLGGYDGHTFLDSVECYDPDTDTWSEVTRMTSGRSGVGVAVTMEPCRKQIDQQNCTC
Data set [3] is described as follows: Antioxidant activity assessed as AAPH radical scavenging activity preincubated for 15 mins measured every min for 80 mins by ORAC-FL assay relative to trolox. Format: functional.
Data set [4] deals with T2, Melatonin receptor type 1A (Homo sapiens, UniProt P48039). Briefly: Displacement of [125l]-lodomelatonin from human MT1 receptor expressed in CHO cells incubated for 120 mins by scintillation counting analysis. It is filed as cell-based.
T2 sequence (P48039 whole entry): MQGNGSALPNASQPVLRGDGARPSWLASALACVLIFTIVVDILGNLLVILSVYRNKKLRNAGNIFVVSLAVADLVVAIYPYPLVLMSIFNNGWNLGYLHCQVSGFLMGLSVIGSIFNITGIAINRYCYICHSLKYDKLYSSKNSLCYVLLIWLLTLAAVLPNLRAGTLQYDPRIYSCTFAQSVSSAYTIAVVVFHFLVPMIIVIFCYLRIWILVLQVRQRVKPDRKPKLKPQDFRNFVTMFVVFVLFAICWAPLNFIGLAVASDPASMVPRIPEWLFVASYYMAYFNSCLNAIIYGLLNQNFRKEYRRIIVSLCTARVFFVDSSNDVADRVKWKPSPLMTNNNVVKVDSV
Data set [5] deals with T3, Melatonin receptor type 1B (Homo sapiens, UniProt P49286).
T3 sequence (P49286 whole entry): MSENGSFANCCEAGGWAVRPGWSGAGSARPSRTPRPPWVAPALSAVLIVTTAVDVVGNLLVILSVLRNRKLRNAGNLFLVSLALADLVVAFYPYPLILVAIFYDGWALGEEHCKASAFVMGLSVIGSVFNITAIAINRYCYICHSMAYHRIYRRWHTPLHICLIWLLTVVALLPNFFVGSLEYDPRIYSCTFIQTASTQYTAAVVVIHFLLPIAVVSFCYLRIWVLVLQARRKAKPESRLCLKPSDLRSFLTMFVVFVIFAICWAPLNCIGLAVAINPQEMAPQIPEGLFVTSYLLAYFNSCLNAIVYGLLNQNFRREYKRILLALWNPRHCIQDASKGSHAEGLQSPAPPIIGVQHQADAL
The data set can be described thus: Displacement of [125l]-lodomelatonin from human MT2 receptor expressed in CHO cells incubated for 120 mins by scintillation counting analysis. Format: cell-based.

Data set [6] concerns the target T2, Melatonin receptor type 1A. The data set can be described thus: Displacement of [125l]-lodomelatonin from human MT1 receptor expressed in CHO cells incubated for 120 mins by scintillation counting analysis relative to control. It is filed as cell-based.
A short description of data set [7]: Displacement of [125l]-lodomelatonin from hamster brain cell QR2 incubated for 60 mins by scintillation counting analysis.
In data set [8] the target is T4, Amine oxidase [flavin-containing] B (Homo sapiens, UniProt P27338).
T4 sequence (P27338 whole entry): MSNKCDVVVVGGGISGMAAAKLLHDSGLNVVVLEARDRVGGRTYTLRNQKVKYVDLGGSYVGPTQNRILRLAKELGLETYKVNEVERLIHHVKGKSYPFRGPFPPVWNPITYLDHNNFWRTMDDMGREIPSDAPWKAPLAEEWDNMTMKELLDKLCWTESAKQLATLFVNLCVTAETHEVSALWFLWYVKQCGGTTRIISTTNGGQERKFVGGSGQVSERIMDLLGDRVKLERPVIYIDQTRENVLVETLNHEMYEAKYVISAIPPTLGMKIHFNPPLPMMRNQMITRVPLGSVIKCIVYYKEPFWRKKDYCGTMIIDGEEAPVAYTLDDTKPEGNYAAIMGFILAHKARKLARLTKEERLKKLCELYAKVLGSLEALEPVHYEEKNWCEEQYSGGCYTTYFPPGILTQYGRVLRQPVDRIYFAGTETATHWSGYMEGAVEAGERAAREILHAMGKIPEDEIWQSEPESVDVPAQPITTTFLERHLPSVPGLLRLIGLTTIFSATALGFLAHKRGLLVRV
Description: Inhibition of human MAO-B using p-tyramine as substrate by Amplex Red reagent based fluorescence analysis

Data set [9] concerns the target T5, Polyunsaturated fatty acid 5-lipoxygenase (Homo sapiens, UniProt P09917).
T5 sequence (P09917 whole entry): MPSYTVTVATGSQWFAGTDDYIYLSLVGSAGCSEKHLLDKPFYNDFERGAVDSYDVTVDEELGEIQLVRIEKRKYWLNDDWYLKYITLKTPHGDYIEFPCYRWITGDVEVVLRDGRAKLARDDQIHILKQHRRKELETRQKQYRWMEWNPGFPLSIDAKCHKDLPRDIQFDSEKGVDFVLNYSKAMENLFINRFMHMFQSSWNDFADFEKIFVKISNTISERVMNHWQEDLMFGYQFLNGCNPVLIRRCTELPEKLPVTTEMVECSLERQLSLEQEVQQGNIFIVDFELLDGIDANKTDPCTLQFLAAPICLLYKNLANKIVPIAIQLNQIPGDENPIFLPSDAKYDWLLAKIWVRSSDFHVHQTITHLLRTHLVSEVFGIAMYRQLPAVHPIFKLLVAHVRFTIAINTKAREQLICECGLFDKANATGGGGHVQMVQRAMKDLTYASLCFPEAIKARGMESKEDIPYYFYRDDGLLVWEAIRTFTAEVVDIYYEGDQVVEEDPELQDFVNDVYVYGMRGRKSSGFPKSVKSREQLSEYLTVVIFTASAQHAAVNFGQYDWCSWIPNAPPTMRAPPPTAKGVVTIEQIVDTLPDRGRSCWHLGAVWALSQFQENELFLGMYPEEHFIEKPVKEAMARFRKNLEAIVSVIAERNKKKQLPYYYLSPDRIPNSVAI
The data set can be described thus: Inhibition of human 5-Lipoxygenase using H2DCFDA as substrate preincubated for 5 mins and measured by Spectrophotometric assay.

Data set [10] addresses T6, Amine oxidase [flavin-containing] A (Homo sapiens, UniProt P21397).
T6 sequence (P21397 whole entry): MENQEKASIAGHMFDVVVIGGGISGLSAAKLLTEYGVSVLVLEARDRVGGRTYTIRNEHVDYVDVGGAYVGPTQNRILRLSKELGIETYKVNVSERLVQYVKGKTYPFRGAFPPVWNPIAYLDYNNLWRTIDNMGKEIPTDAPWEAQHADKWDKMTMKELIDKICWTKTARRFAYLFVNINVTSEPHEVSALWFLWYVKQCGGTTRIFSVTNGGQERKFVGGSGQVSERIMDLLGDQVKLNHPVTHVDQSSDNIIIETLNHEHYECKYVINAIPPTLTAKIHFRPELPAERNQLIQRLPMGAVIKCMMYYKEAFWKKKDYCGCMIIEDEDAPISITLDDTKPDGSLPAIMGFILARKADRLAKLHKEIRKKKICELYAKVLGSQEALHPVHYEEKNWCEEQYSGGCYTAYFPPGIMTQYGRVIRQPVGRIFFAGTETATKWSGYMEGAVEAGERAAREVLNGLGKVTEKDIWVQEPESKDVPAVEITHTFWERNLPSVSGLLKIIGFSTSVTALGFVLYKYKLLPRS
Description: Inhibition of human MAO-A using p-tyramine as substrate by Amplex Red reagent based fluorescence analysis

For data set [11], the system named is Cricetinae. Briefly: Displacement of [125l]-lodomelatonin from hamster brain cell QR2 at 100 nM incubated for 60 mins by scintillation counting analysis relative to control. Format: tissue-based.
Data set [12] can be described thus: Permeability of compound by PAMPA-BBB assay. In general terms: PAMPA measures passive passage across an artificial lipid membrane.

Each structure is given as a SMILES string. pIC50, pKi: −log10 of the molar value. Active and inactive are the calls of the source. No cut-off for these calls is given here. Where only a bound is given, the exact number is not on record here.

As to `COc1ccc2cccc(/C=C/c3n[nH]c(=O)o3)c2c1`, the CD in [1] is more than 30 µM.
`C=CCNC(=O)/C=C/c1c[nH]c2ccc(OC)cc12` displayed a CD in [1] (filed as activator) of 27.4 µM. Further, the result in data set [2] was inactive.
In data set [1] (filed as activator), `CCCn1nc(CCc2c[nH]c3ccc(OC)cc23)oc1=O` had an Activity of 2.3 equiv. For the same molecule, in data set [2], the result was inactive.
On to `CCCCCCCn1nc(CCc2c[nH]c3ccc(OC)cc23)oc1=O`, for which the Activity in data set [3] was determined as 2.1 equiv.
Usually pKi stands for −log10 of the Ki, conventionally taken in molar units. A higher pKi goes with a small Ki. As a reminder, the inhibition is the share of the control response that was lost under treatment. A lower inhibition goes with little suppression. Consider `COc1cc2cccc(/C=C/c3n[nH]c(=O)o3)c2cc1OC`, for which the values for the pKi in data set [4] and in [5] were less than 6.00 and 7.16, respectively. Further, in data set [3], the Activity is less than 0.1 equiv. Besides, in [1], the CD is more than 30 µM. Also, the outcome in [2] was inactive. The inhibition in [6] was 63%.
`COc1ccc2[nH]cc(/C=C/c3n[nH]c(=O)o3)c2c1`: the CD in [1] is more than 60 µM. Further, in [2], the result was Active.
On to `C[S+]([O-])CCCCN=C=S` (centres undefined), for which the CD in [1] (filed as activator) worked out at 0.54 µM.
For `COc1ccc2[nH]cc(CC(C)c3n[nH]c(=O)o3)c2c1` (centres undefined), the CD in data set [1] is more than 30 µM. Besides, in data set [2], the outcome was inactive.
Consider `COc1ccc2[nH]cc(CCNC(C)=O)c2c1` [MELATONIN], for which the pKi in [7] is 7.11. Further, in data set [3], the Activity was less than 0.1 equiv.
In the case of `COc1ccc2c(c1)C(/C=C/c1n[nH]c(=O)o1)=CCC2`, the CD in data set [1] is more than 30 µM.
`C#CCNC(=O)/C=C/c1c[nH]c2ccc(OC)cc12` had a CD in data set [1] (filed as activator) of 1.76 µM. Further, the result in [2] was Active.
For the molecule `COc1ccc2[nH]cc(CCc3nn(CC4CCC4)c(=O)o3)c2c1`, the Activity in data set [3] is 2.2 equiv.
For `C#CCn1nc(/C=C/c2c[nH]c3ccc(OC)cc23)oc1=O`, in data set [1] (filed as activator), the CD is 15.1 µM. Moreover, the outcome in [2] was Active.
Consider `CCCCCCn1nc(CCc2c[nH]c3ccc(OC)cc23)oc1=O`, for which the Activity in [3] was determined as 3 equiv.
Consider `COc1ccc2[nH]cc(CCc3nn(CCCc4ccccc4)c(=O)o3)c2c1`, for which the Activity in data set [3] came out at 2.7 equiv.
As for `COc1ccc2[nH]cc(CCc3nn(CC4CCCC4)c(=O)o3)c2c1`, the Activity in [3] stood at 2.8 equiv.
One may read the pIC50 as the negative decadic logarithm of the IC50, by convention in mol/L. Read a low pIC50 as a large IC50. Take `CNc1nnc(CCc2c[nH]c3ccc(OC)cc23)o1`: the pKi in data set [4] was 6.26; in [5] it was 6.96; in data set [7] it was 6.48. Also, the Activity in data set [3] is 1.8 equiv. For the same molecule, the pIC50 in data set [8] is 4.43; in [9], 4.22; in [10] it was less than 4.30.
By Papp is commonly meant a coefficient for how fast a substance crosses the barrier. Turning to `COc1ccc2[nH]cc(CCc3n[nH]c(=O)o3)c2c1`, the pKi in data set [7] is less than 7.00. Further, in data set [11], the inhibition amounted to 5%. Further, in [3], the Activity worked out at 2.7 equiv. For the same molecule, in data set [12], the Papp was less than 2 ×10⁻⁶ cm/s.
